Results as given in PMC9897788, “Design, synthesis and cytotoxic evaluation of novel bis-thiazole derivatives as preferential Pim1 kinase inhibitors with in vivo and in silico study” (Journal of Enzyme Inhibition and Medicinal Chemistry, 2023).
Entries after “also recorded” stand apart in the source; their conditions may differ.

How the values were obtained:
Pim2 kinase = Pim2 kinase (Homo sapiens, UniProt Q9P1W9); assay: In vitro Pim2 kinase inhibition assay (ADP-Glo); assay type: biochemical; conditions: n = 3
[1] = system: Breast MCF10A normal cell line; assay: Normal cell line cytotoxicity using MCF10a (MTT); assay type: cell-based, human; conditions: 48 h; for IC50: Homo sapiens, MCF-10A; for Selectivity Index: MCF10A normal versus T47D cancer cells
Description: In vitro toxicology assay kit (MTT based) stock no. TOX-1 7H258 was purchased from SIGMA (St. Louis, MO). About 3 ml of the medium with the normal cell lines in log phase were added in multiwall plate without phenol red and serum. A volume of reconstituted MTT (#M-5655) equivalent to 10% of the culture medium volume was added then incubated for 2 h. The resulted fomazan crystals were dissolved with occasional shaking by equivalent volume of MTT solubilising solution (#M-8910). The final solution absorbance was measured spectrophotometry at wavelength 570 nm. Blank experiment was performed using medium only without cells.

Pim1 kinase = biological target: T1, Pim1 kinase (Homo sapiens, UniProt P11309); assay: In vitro Pim1 kinase inhibition assay (ADP-Glo); assay type: biochemical; conditions: n = 3
T1 construct: purchased Promega Corporation, Madison, WI
Description: ADP-Glo^TM kinase assay kit was used to evaluate Pim1 kinase inhibition purchased from Promega Corporation, Madison, WI. At each of the kit low-volume well, the tested compounds were dissolved in DMSO at each of the tested concentration range and 1 µL was withdrawn and mixed with 2 µL Pim1 kinase and 2 µL of substrate/ATP mix then incubated at room temperature for 60 min. 5 µL of ADP-Glo reagent was added and incubated for another 40 min at room temperature. Finally 10 µL of kinase detection reagents was added and incubated for 30 min and the luminescence was recorded. Pim1 kinase buffer was prepared by mixing 40 mM Tris at pH 7.5, 20 mM MgCl2, 0.1 mg/mL BSA and 50 µM DTT.

[2] = Calculation of the lethal dose 50 (LD50), fixed-dose approach; conditions: male, Swiss albino, mouse, in vivo, ip, mice, single dose
Description: The LD50 of compounds 3b and 8b were determined using a fixed-dose approach; 12 male Swiss albino mice were divided into four groups (three mice per group) to calculate the LD50. […]. By giving these concentrations once to the animals and monitoring the signs of poisoning and deaths within 24 h, the lethal dose was identified. The animals were monitored continuously for the first two hours and then every four hours after that. After 24 h, all of animal deaths and survival appeared. […]. […] The dose used in the experiment was 1/10 from the LD50.

Ehrlich solid carcinoma = assay: In vivo cytotoxicity study, Ehrlich solid carcinoma model; design: species or system male Swiss albino mice; conditions: i.p. once weekly for 3 weeks; for Histopathological examination of Ehrlich solid tumour (H&E): mice; for TNF-α level (ELISA) / malondialdehyde (MDA) level (ELISA): serum, Ehrlich solid tumour mice
Description: The National Cancer Institute (Cairo, Egypt) provided the 48 male Swiss albino mice utilised in this study, which ranged in weight from 25 to 30 g. Prior to the experiment, mice were given a week to settle into their new environment. A constant 23 °C temperature, 60% humidity, and a 12/12 light/dark cycle were maintained in stainless steel cages. Each cage housed five mice with a plenty of nourishing food and refreshing water were served. This in vivo study was approved from the ethical committee of the Azhar University, Faculty of Medicine, Egypt.
A female mouse with an 8-day-old ascetic tumour was obtained from the National Cancer Institute on the day of induction, and Ehrlich ascites carcinoma (EAC) cells were isolated from the ascetic fluid of the animal (day 0). Then, regular saline was used to dilute the ascetic fluid (1:10). Each mouse received a subcutaneous injection of 0.2 ml of ascetic fluid containing 2.5 × 10^6 EAC cells in the right thigh of the hind limb to induce Ehrlich solid-phase cancer.
On day 11 following ESC inoculation, tumour formation was observed as a solid mass expanding in the right thigh of each animal. The mice were then randomly divided into four groups (n = 6) • Group (1) acted as the […] control group and mice received an i.p. DMSO (2 mg/kg/once weekly) for 3 weeks. • Group (2) (Doxorubicin Group) mice received an i.p. dose of doxorubicin (2 mg/kg/once weekly) for 3 weeks. • Group (3) mice were given an i.p. dose of 8b compound (1 mg/kg/once weekly) for 3 weeks, • Group (4) mice were given an i.p. dose of 3b compound (1.4 mg/kg/once weekly) for 3 weeks.
Two days after the last dose of therapy, blood was drawn from the mice’s orbital canthus, and serum was separated and stored at −80 °C for upcoming biochemical investigations. Following the cervical dislocation method of euthanasia, tumour samples from each mouse were collected and preserved in neutral buffered formalin at a 10% concentration for immunohistochemistry and histopathology studies. Histological preparations were performed according to the reported method. Slices of Ehrlich tumour were cut to a thickness of 3–4 mm before being fixed in 10% neutral buffered formalin (10% NBF), dehydrated through a series of ethanol solutions, cleaned in xylene, and finally embedded in paraffin. To examine the overall tissue architecture, sections ([…]) thick were cut from paraffin blocks using a microtome and stained with haematoxylin and eosin. We used a Leica microscope (CH9435 Hee56rbrugg) to look at H&E-stained tissue sections (Leica Microsystems, Switzerland).
The avidin–biotin–peroxidase complex (ABC) method was used to do immunohistochemistry on paraffin sections that were put on positively charged slides. Rabbit Anti-VEGF Receptor 2 Polyclonal Antibody (Elabscience Cat# E-AB-63481, Dil.: 1:100) and Rabbit Monoclonal anti-caspase-3 antibody, active (cleaved) form (Sigma Aldrich Catalog # AB3623)[41], were utilised during this IHC assessment. Each group’s sections were treated with the previously specified antibodies, after which the ABC technique reagents (Vectastain ABC-HRP kit, Vector labs) were applied. To locate the antigen–antibody combination, marker expression was stained with diaminobenzidine (DAB, manufactured by Sigma) and labelled with peroxidase. In order to conduct negative controls, non-immune serum was substituted for the primary or secondary antibodies. IHC-stained sections were assessed using a Leica (CH9435 Hee56sbrugg) microscope (Leica Microsystems, Switzerland).
Using one-way analysis of variance (ANOVA) followed by Tukey’s post-hoc test, the difference between experimental groups was analysed. All data are presented as mean ± standard deviation (SD). All comparisons were judged statistically significant when the p values ≤ 0.05. ImageJ (NIH Image J system, Bethesda, MD) was used for the analysis of immunohistochemistry photos.

[3] = Ehrlich solid tumour tissue, 8b 1 mg/kg, 3b 1.4 mg/kg, doxorubicin 2 mg/kg
[4] = 8b 1 mg/kg, 3b 1.4 mg/kg, doxorubicin 2 mg/kg

T1 sequence (P11309 whole entry): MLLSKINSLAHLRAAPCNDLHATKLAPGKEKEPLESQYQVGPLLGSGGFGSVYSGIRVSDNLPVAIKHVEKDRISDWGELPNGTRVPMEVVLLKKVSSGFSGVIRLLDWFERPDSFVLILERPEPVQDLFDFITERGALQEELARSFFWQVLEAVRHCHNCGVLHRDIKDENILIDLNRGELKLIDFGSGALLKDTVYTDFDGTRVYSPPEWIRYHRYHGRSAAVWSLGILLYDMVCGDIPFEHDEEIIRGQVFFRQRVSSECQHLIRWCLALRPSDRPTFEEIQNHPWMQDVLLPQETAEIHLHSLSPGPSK
Chain of Pim2 kinase (Q9P1W9 whole entry): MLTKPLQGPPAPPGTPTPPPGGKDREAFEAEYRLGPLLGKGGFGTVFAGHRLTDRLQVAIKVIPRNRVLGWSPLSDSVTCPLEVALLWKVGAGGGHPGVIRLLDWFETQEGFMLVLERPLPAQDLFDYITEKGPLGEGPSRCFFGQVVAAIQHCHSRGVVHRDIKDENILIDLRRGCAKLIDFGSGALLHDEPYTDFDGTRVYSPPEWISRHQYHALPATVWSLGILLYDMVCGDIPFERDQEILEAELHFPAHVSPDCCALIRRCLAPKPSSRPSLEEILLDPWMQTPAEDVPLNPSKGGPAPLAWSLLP

Row | SMILES | IC50 (Pim2 kinase) [µM] | IC50 [1] [µM] | Selectivity Index [1] | IC50 (Pim1 kinase) [µM] | LD50 at 24 h [2] [mg/kg] | VEGF expression by immunohistochemistry (Ehrlich solid carcinoma; [3]) | Histopathological examination of Ehrlich solid tumour (H&E) (Ehrlich solid carcinoma; [4]) | TNF-α level (ELISA) (Ehrlich solid carcinoma) | malondialdehyde (MDA) level (ELISA) (Ehrlich solid carcinoma) | caspase-3 expression by immunohistochemistry (Ehrlich solid carcinoma; [3])
1 | CC(=O)c1sc(Nc2cccc(Nc3nc(C)c(C(C)=O)s3)c2)nc1C [3b, 1,1’-(2,2’-(1,3-Phenylenebis(azanediyl))bis(4-methylthiazole-5,2-diyl))diethanone] | 6.05 | 105 | 18.25 | 0.32 | 14 | moderate to low expression of VEGF; also recorded: moderate VEGF positivity; also recorded: down-regulation of VEGF | substantial number of aggregated neoplastic cells with their typical structure were surrounded by small patches of necrotic muscle tissue; also recorded: aggregates of neoplastic cells with their typical structure that surrounded by small patches of necrotic muscle tissue | no statistical difference was detected between compounds 8b and 3b; also recorded: down-regulation of VEGF and TNF α | did not significantly vary from the untreated control group | –
2 | c1ccc(-c2csc(Nc3cccc(Nc4nc(-c5ccccc5)cs4)c3)n2)cc1 [6a, N^1,N^3-bis(4-phenylthiazol-2-yl)benzene-1,3-diamine] | – | – | – | 2.02 | – | – | – | – | – | –
3 | Fc1ccc(-c2csc(Nc3cccc(Nc4nc(-c5ccc(F)cc5)cs4)c3)n2)cc1 [6b, N^1,N^3-bis(4–(4-fluorophenyl)thiazol-2-yl)benzene-1,3-diamine] | – | – | – | 2.95 | – | – | – | – | – | –
4 | Fc1ccc(-c2cs/c(=N\c3ccccc3)n2-c2cccc(-n3c(-c4ccc(F)cc4)cs/c3=N\c3ccccc3)c2)cc1 [8b, N,N’-(3,3’-(1,3-phenylene)bis(4–(4-fluorophenyl)thiazole-3(3H)-yl-2(3H)-ylidene))dianiline] | 10.5 | 53.3 | 5.44 | 0.24 | 10 | low expression of VEGF; also recorded: no appreciable VEGF immunoreactivity; also recorded: down-regulation of VEGF | minimal infiltration of neoplastic cells and a significant reduction in their quantity; also recorded: inhibited the growth of Ehrlich solid tumours in mice | no statistical significant difference between DOX and 8b; also recorded: down-regulation of VEGF and TNF α | elevation of malondialdehyde levels | highest significant increment in caspase-3 expression; also recorded: significant positive expression of caspase-3; also recorded: up-regulation of caspase-3
